US6683077B2, “2-Amino-benzoxazinones for the treatment of viral infections” (G.D. Searle & Co., priority 1996, dated 2004)
pEC50, pIC50: −log10 of the molar value.

Experiments:
[1] = target: HCMV protease (assemblin) (Human cytomegalovirus, UniProt P16753); test: Enzymatic assay for HCMV protease (assemblin) inhibitors; type: biochemical
[2] = system: HCMV engineered virus RC256; test: microbe, parasite or virus in culture; type: cell-based, human cytomegalovirus; settings: Human betaherpesvirus 5, Fibroblast, read-out: Antiviral Activity RC256, first value (EC50)
[3] = target: T1, Human leukocyte elastase (HLE) (Homo sapiens, UniProt P08246); test: Human leukocyte elastase assay; type: biochemical
T1 construct: gift of R. Senior, Washington University
T1 sequence (P08246 30-267): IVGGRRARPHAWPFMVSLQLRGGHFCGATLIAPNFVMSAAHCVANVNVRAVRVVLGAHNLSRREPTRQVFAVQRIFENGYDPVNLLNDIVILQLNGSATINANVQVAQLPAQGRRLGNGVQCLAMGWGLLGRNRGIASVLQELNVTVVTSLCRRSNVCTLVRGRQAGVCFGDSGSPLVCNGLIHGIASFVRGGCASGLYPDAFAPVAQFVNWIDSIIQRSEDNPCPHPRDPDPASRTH
Outline: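 HLE in 0.2 M Tris, pH 8.0, was preincubated 30 minutes at ambient temperature with compound in DMSO. The reaction was started with methoxysuccinyl-Ala-Ala-Pro-Val-p-nitroanilide (2.5 mM added solution), and absorbance increase at 405 nm was monitored for 10 minutes.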

HCMV (strain AD169) = test: HCMV ELISA antiviral assay (viral antigen); type: cell-based, human cytomegalovirus; settings: Human betaherpesvirus 5, Fibroblast; HCMV AD169 in human foreskin fibroblasts; value before the slash; unit inferred; read-out: Antiviral Activity Elisa, first value (EC50)
Source text: These complimentary assays tested the ability of a compound to inhibit the production of new virus and the toxicity of the compound to she host cells. It was important that both assays be performed simultaneously in order to compare the results directly since, toxicity may indirectly reduce viral yield.
Viral yield was estimated by measuring the amount of a viral antigen produced 4 days post infection with a monoclonal antibody to an abundant “immediate early” viral protein. An enzyme-linked (horseradish peroxidase) secondary antibody specific to the primary (mouse) antibody was urged to measure the amount of viral antigen. Test compounds were diluted to 2-times the desired final concentration in DMEM+5% FBS. One hundred microliters of this solution was placed in each well of a 96-well plate. This was performed once for the antiviral 96-well plate and again for a cytotoxicity plate. Two controls were also included for both plates; a no drug control and a no virus control. Ganciclovir was routinely tested in antiviral and cytotoxicity plates as a reference standard because it has known antiviral activity for HCMV. All cells were prepared by harvesting human foreskin fibroblasts, with trypsin and re-suspending at a concentration of 5×10^5 cells per ml in DMEM. Infected cells were prepared by infecting these with HCMV (strain AD169) at a multiplicity of infection=0.2. One hundred microliters of uninfected cells (5×10^4 cells) were added to the appropriate wells of the cytotoxicity plate. In a similar manner 100 μl of infected cells (5×10^4 cells) were added to the appropriate wells of the antiviral plate. Additionally, uninfected cells not treated with test compound were included as controls on the antiviral plate. Plates were incubated for 96 hours at 37° C. in 5% CO2 atmosphere and processed to measure the amount of viral antigen and toxicity.
The following was performed on the antiviral plate only. Media was removed and cells were fixed with 1:1 acetone:methanol for 15 minutes at −20° C. Fixative was removed and cells were washed once with PBS containing 0.05% Tween20. In order to block nonspecific binding of antibodies, each well was incubated with PBS containing 3% (w/v) bovine serum albumin (BSA) for 1 hour at 22° C. The blocking solution was removed and the cells were washed once with PBS containing 0.05% Tween20 before incubating with 1:100 dilution of primary antibody in PBS containing 3% BSA for 2 hours at 22° C. The primary antibody was a monoclonal antibody (mouse source) specific to the immediate early nuclear antigen of HCMV and was commercially available (Dupont). The 1° antibody solution was removed and the plate was rinsed 5 times with PBS containing 1% (v/v) Triton X-100 (PBST) before incubating with secondary antibody diluted 1:1000 in PBS containing 3% BSA for 2 hours at 22° C. The secondary antibody (goat source) recognized the murine-specific determinants of the 1° antibody and was covalently linked to horseradish peroxidase (Sigma). The plate was rinsed 5 times with PBST and once with deionized water before adding 100 μl TMB substrate solution and incubating 30 minutes at 22° C. The reaction was stopped by adding 100 μL of phosphoric acid and the OD at 450 nm recorded. TMB (3,3′,5,5′ tetramethylbenzidine) was the substrate for the horseradish peroxidase linked to the 2° antibody. It was made from a commercially available kit (Kirkegaard & Perry Laboratories, Inc.). Antiviral activity was calculated by comparing the amount of viral antigen produced in drug treated wells with that produced in wells absent of drug.

[4] = system: human foreskin fibroblasts
[5] = target: T2, Bovine pancreas α-chymotrypsin (Bos taurus, UniProt P00766, DEL14-15/DEL147-148); test: Chymotrypsin assay; type: biochemical
T2 construct: Bovine pancreas α-chymotrypsin (type II, Sigma); purchased Sigma type II; host or cells: bovine pancreas
Procedure: The chymotrypsin assay was modified from the method of Delmar et al [Anal. Biochem., 99, 316-320 (1979)]. Bovine pancreas α-chymotrypsin (type II, Sigma) was dissolved in 0.001 N HCl at 1 mg/ml and further diluted 1/600 in assay buffer (0.1 M Tris, pH 7.8, containing 0.1 M CaCl2) before use. 20 μl of test compound in DMSO (or DMSO alone), 100 μl of assay buffer and 30 μl of enzyme were added to […], mixed and pre-incubated for 30 minutes at ambient temperature. Reaction was initiated by addition of 50 Al of 0.2 mM N-succinyl-Ala-Ala-Pro-Phe-p-nitroanilide (Sigma; 2 mM in DMSO diluted 1/10 in assay buffer before use). The increase in absorbance at 405 nm was monitored for 10 minutes with a Biotek EL340 plate reader.

[6] = @ 1 (concentration unit not given)
[7] = @ 100 (concentration unit not given)
[8] = @ 10 (concentration unit not given)

Sequence of HCMV protease (assemblin) (P16753 1-256): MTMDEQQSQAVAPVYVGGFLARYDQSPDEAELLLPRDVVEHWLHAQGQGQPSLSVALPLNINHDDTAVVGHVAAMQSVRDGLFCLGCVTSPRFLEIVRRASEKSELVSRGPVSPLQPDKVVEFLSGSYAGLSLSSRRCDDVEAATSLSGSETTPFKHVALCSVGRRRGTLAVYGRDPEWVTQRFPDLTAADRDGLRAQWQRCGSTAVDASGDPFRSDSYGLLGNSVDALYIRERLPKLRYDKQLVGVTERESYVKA

With `COc1ccc(C[C@H](Nc2nc3ccc(CNC(=O)OC(C)(C)C)c(C)c3c(=O)o2)C(=O)N(C)c2ccc(Cl)cc2)cc1` [Example 7r, 1,1-Dimethylethyl[[2-[[2-[(4-chlorophenyl)methylamino]-1S-[(4-methoxyphenyl)methyl]-2-oxoethyl]amino]-5-methyl-4-oxo-4H-3,1-benzoxazin-6-yl]methyl]carbamate] as the compound, how does the “Assemblin Protease, % @ concentration” value [1, 6] read?
Its value is 52% @ 1.

And the pEC50 [2]?
Its pEC50 is 5.15.

What about the “HLE, % @ concentration” value [3, 6] of the same compound?
Its value is 44% @ 1.

How did the pIC50 [1] turn out when `CCN(Cc1ccccc1)C(=O)[C@H](Cc1ccc(OC)cc1)Nc1nc2ccc(CNC(=O)Oc3ccccc3)c(C)c2c(=O)o1` [Example 9q, Phenyl[[2-[[2-[ethyl(phenylmethyl)amino-1S-,(4-methoxyphenyl)methyl]-2-oxoethyl]amino]-5-methyl-4-oxo-3,1-benzoxazin-6-yl]methyl]carbamate] was run?
The pIC50 was 6.00.

And the pEC50 [2]?
The pEC50 was 4.74.

And the “HLE, % @ concentration” value ([3]; @ 5 (concentration unit not given))?
The value was 48% @ 5.

How did the pEC50 (HCMV (strain AD169)) turn out when `COCC(=O)Nc1ccc2nc(N[C@@H](Cc3ccccc3)C(=O)OC)oc(=O)c2c1C` [Example 11c, N-[6-[[(Methoxymethyl)carbonyl]amino]-5-methyl-4-oxo-4H-3,1-benzoxazin-2-yl]-L-phenylalanine, methyl ester] was run?
Its pEC50 is 4.11.

And the “HLE, % @ concentration” value [3, 7]?
The value was 83% @ 100.

Which results are given for `Cc1c(CNC(=O)Oc2ccccc2)ccc2nc(N[C@@H](Cc3ccccc3)C(=O)N(C)Cc3ccccc3)oc(=O)c12` [Example 9ee, Phenyl[[5-methyl-2-[[2-[methyl(phenylmethyl)amino]-2-oxo-1S-(phenylmethyl)ethyl]amino]-4-oxo-4H-3,1-benzoxazin-6-yl]methyl]carbamate]?
pIC50 [1]: 6.22; pEC50 [2]: 4.82; HLE, % @ concentration [3, 8]: 47% @ 10

Which “Antiviral Activity RC256, second value (cytotoxicity)” value [4] does the source give for “3,5-Diiodo-N-(5-methyl-(3,5-diiodo)2-yl)-L-tyrosine, methyl ester [Example 1q]” here?
Its value is 70.

With `COc1ccc(C[C@H](Nc2nc3ccc(NC(=O)Oc4ccccc4)c(C)c3c(=O)o2)C(=O)N(C)Cc2ccccc2)cc1` [Example 11q, Phenyl[2-[[1S-[(4-methoxyphenyl)methyl]-2-[methyl(phenylmethyl)amino]-2-oxcethyl]amino]-5-methyl-4H-3,1-benzoxazin-6-yl]carbamate] as the compound, how does the pIC50 [1] read?
Its pIC50 is 6.22.

And the pEC50 [2]?
The pEC50 was 4.74.

And the pIC50 [5]?
The pIC50 was 5.62.

`COC(=O)[C@H](C)Nc1nc2cccc(C)c2c(=O)o1` [Example 1b, N-(5-Methyl-4-oxo-4H-3,1-benzoxazin-2-yl)-L-alanine, methyl ester] was tested. Which pEC50 (HCMV (strain AD169)) did it give?
The pEC50 was 4.14.

For `Cc1c(NC(=O)CN(C)C)ccc2nc(N[C@@H](C)c3ccccc3)oc(=O)c12` [Example 11m, 5-Methyl-6-[[(dimethylaminomethyl)carbonyl]amino]-2-[[(1S)-phenylethyl]amino]-4H-3,1-benzoxazin-4-one], which “Assemblin Protease, % @ concentration” value [1, 6] is on record?
Its value is 67% @ 1.0.

And the pEC50 (HCMV (strain AD169))?
Its pEC50 is 4.06.

What about the “HLE, % @ concentration” value [3, 7] of the same compound?
Its value is 37% @ 100.

With `Cc1cccc2nc(N[C@@H](C)c3ccccc3)oc(=O)c12` [Example 3b, 5-Methyl-2-[[(1S)-1-phenylethyl]amino]-4H-3,1-benzoxazin-4-one] as the compound, how does the pEC50 (HCMV (strain AD169)) read?
The pEC50 was 4.57.

How did the pEC50 (HCMV (strain AD169)) turn out when `Cc1c(NC(=O)OC(C)(C)C)ccc2nc(N[C@@H](C)C(=O)N(C)Cc3ccccc3)oc(=O)c12` [Example 6aa, N-[6-[[(1,1-Dimethylethoxy)carbonyl]amino]-5-methyl-4-oxo-4H-3,1-benzoxazin-2-yl]-L-alanine, N-methyl-N-phenylmethylamide] was run?
Its pEC50 is 4.12.

Which “Assemblin Protease, % @ concentration” value [1, 7] does the source give for `Cc1c(CNS(=O)(=O)c2ccccc2)ccc2nc(N[C@@H](Cc3ccccc3)C(=O)N(C)Cc3ccccc3)oc(=O)c12` [Example 13e, N-Methyl-αS-[[5-methyl-4-oxo-6-[[(phenylsulfonyl)amino]methyl]-4H-3,1-benzoxazin-2-yl]amino]-N-(phenylmethyl)benzenepropanamide] here?
The value was 11% @ 100.

What about the pEC50 [2] of the same compound?
Its pEC50 is 4.85.

Which results are given for “1,1-Dimethylethyl[2-[[1S-[(4-methoxyphenyl)methyl]-2-oxo-2-[[2-(2-pyridinyl)ethyl]amino]ethyl]amino]-5-methyl-4-oxo-4H-3,1-benzoxazin-6-yl]carbamate [Example 6hh]”?
Antiviral Activity RC256, second value (cytotoxicity) [4]: 60; Chymotrypsin, % @ concentration [5, 8]: 21% @ 10

`Cc1c(NC(=O)OC(C)(C)C)ccc2nc(N[C@@H](C)C(=O)N3CCCC3)oc(=O)c12` [Example 6g, N-[6-[[(1,1-Dimethylethoxy)carbonyl]amino]-5-methyl-4-oxo-4H-3,1-benzoxazin-2-yl]-L-alanine, pyrrolidineamiae] was tested. Which pEC50 (HCMV (strain AD169)) did it give?
Its pEC50 is 4.00.

`COC(=O)[C@H](Cc1cscn1)Nc1nc2ccc(NC(=O)OC(C)(C)C)c(C)c2c(=O)o1` [Example 6e, N-[6-[[(1,1-Dimethylethoxy)carbonyl]amino]-5-methyl-4-oxo-4H-3,1-benzoxazin-2-yl]-L-thiazol-4-yl-alanine, methyl ester] was tested. Which pEC50 (HCMV (strain AD169)) did it give?
The pEC50 was 4.24.
